# Earlier results as cited in patent US10463731B2, “Adjuvant combinations comprising alpha-galactosylceramide or iGb3, CD40 agonists and antigen” (IMMURX, INC., priority 2007, dated 2019).
# System: tumors
# Conditions: monotherapy, mice
smiles,measurement,value
"CCCCCCCCCCCCCCCCCCCCCCCCCC(=O)N[C@@H](CO[C@H]1O[C@H](CO)[C@H](O)[C@H](O)[C@H]1O)[C@H](O)[C@H](O)CCCCCCCCCCCCCC [α-Gal-Cer, alpha-galactosylceramide]",enhancement of immunity to tumors,limited success
